# Legend:
# Format in all cases: cell-based
# HIV strain F = assay: Cellular anti-HIV assay, clinically isolated mutant strain F; conditions: FR=EC50(mutant strain)/EC50(HIV-I strain LAI); MT4 cells
# Experimental: (§1) HIV- or mock-infected MT4 cells were incubated for five days in the presence of various concentrations of the inhibitor. At the end of the incubation period, all HIV-infected cells have been killed by the replicating virus in the control cultures in the absence of any inhibitor. Cell viability is measured by measuring the concentration of MTT, a yellow, water soluble tetrazolium dye that is converted to a purple, water insoluble formazan in the mitochondria of living cells only. Upon solubilization of the resulting formazan crystals with isopropanol, the absorbance of the solution is monitored at 540 nm. The values correlate directly to the number of living cells remaining in the culture at the completion of the five day incubation. The inhibitory activity of the compound was monitored on the virus-infected cells and was expressed as EC50 and EC90. These values represent the amount of the compound required to protect 50% and 90%, respectively, of the cells from the cytopathogenic effect of the virus. […] Whetever results are reported as e.g. pEC50 or pCC50 values, the result is expressed as the negative logarithm of the result expressed as EC50 or CC50 respectively. […]
# (§2) As a measure of the broad spectrum activity of the present compounds, the fold resistance (FR), defined as FR=EC50(mutant strain)/EC50(HIV-I strain LAI), was determined.
# mock-infected MT4 cells = assay: Toxicity on mock-infected MT4 cells (MTT); conditions: pCC50 value as determined with mock transfected cells; five days
# Experimental: HIV- or mock-infected MT4 cells were incubated for five days in the presence of various concentrations of the inhibitor. At the end of the incubation period, all HIV-infected cells have been killed by the replicating virus in the control cultures in the absence of any inhibitor. Cell viability is measured by measuring the concentration of MTT, a yellow, water soluble tetrazolium dye that is converted to a purple, water insoluble formazan in the mitochondria of living cells only. Upon solubilization of the resulting formazan crystals with isopropanol, the absorbance of the solution is monitored at 540 nm. The values correlate directly to the number of living cells remaining in the culture at the completion of the five day incubation. The inhibitory activity of the compound was monitored on the virus-infected cells and was expressed as EC50 and EC90. These values represent the amount of the compound required to protect 50% and 90%, respectively, of the cells from the cytopathogenic effect of the virus. […] Whetever results are reported as e.g. pEC50 or pCC50 values, the result is expressed as the negative logarithm of the result expressed as EC50 or CC50 respectively.
# as §2
# HIV strain E = assay: Cellular anti-HIV assay, clinically isolated mutant strain E; conditions: FR=EC50(mutant strain)/EC50(HIV-I strain LAI); MT4 cells
# Experimental: as §1, §2
# HIV strain C = assay: Cellular anti-HIV assay, clinically isolated mutant strain C; conditions: FR=EC50(mutant strain)/EC50(HIV-I strain LAI); MT4 cells
# Experimental: as §1, §2
# HIV strain A = assay: Cellular anti-HIV assay, clinically isolated mutant strain A; conditions: FR=EC50(mutant strain)/EC50(HIV-I strain LAI); MT4 cells
# Experimental: as §1, §2
# HIV strain D = assay: Cellular anti-HIV assay, clinically isolated mutant strain D; conditions: FR=EC50(mutant strain)/EC50(HIV-I strain LAI); MT4 cells
# Experimental: as §1, §2
# HIV-1 strain LAI = assay: Cellular anti-HIV assay (MTT) in MT4 cells, wild type strain; conditions: five days
# Experimental: The compounds of the present invention were examined for anti-viral activity in a cellular assay. […] The cellular assay was performed according to the following procedure.
# HIV- or mock-infected MT4 cells were incubated for five days in the presence of various concentrations of the inhibitor. At the end of the incubation period, all HIV-infected cells have been killed by the replicating virus in the control cultures in the absence of any inhibitor. Cell viability is measured by measuring the concentration of MTT, a yellow, water soluble tetrazolium dye that is converted to a purple, water insoluble formazan in the mitochondria of living cells only. Upon solubilization of the resulting formazan crystals with isopropanol, the absorbance of the solution is monitored at 540 nm. The values correlate directly to the number of living cells remaining in the culture at the completion of the five day incubation. The inhibitory activity of the compound was monitored on the virus-infected cells and was expressed as EC50 and EC90. […] Whetever results are reported as e.g. pEC50 or pCC50 values, the result is expressed as the negative logarithm of the result expressed as EC50 or CC50 respectively.
# as §2
# HIV strain B = assay: Cellular anti-HIV assay, clinically isolated mutant strain B; conditions: FR=EC50(mutant strain)/EC50(HIV-I strain LAI); MT4 cells
# Experimental: as §1, §2
SMILES,FR towards mutant F (HIV strain F),Tox (pCC50) (mock-infected MT4 cells),FR towards mutant E (HIV strain E),FR towards mutant C (HIV strain C),FR value towards mutant A (HIV strain A),FR towards mutant D (HIV strain D),WT (pEC50) (HIV-1 strain LAI),FR towards mutant B (HIV strain B)
CNc1nc2ccc(S(=O)(=O)N(CC(C)C)CC(O)C(Cc3ccccc3)NC(=O)OC3COC4OCCNC34)cc2o1 (mixture of isomers) [Compound 43],14,4,0.59,0.8,3.3,0.62,7.32,1.6
CNc1nc2ccc(S(=O)(=O)N(CC(C)C)CC(O)C(Cc3ccccc3)NC(=O)OC3COC4OCCNC34)cc2o1 (mixture of isomers) [Compound 44],4.9,4,0.56,0.93,1.6,0.56,7.36,1.3

# From US7622490B2, “Broadspecturm 2-amino-benzoxazole sulfonamide HIV protease inhibitors” (Tibotec Pharmaceuticals, Ltd., priority 2001, dated 2009)
